Measurements taken from patent EP0315861A1, “Antimycotic compositions of a nikkomycin compound and an antimycotic azole” (BAYER AG, priority 1987, dated 1989).

Tests used:
[1] = test system: Candida albicans-Strang B311; test: checkerboard in vitro synergy test (microtiter plates, growth inhibition endpoints, isobolograms); type: cell-based; conditions: combination with Nikkomycin versus azole alone
Description: Um die Eignung von Nikkomycinen und Azolen hinsichtlich der synergistischen Wirkung zu testen, wurde ein schachbrettartiger in vitro-Versuch mit der Hefe Candida albicans durchgeführt.
Ein Candida albicans-Strang B311 wurde über Nacht in einer Glucose-Hefeextrakt-Kultur gezüchtet, gewaschen und auf die gewünschte Dichte gebracht.
Die Tests wurden in 96-Loch-Mikrotiterplatten durchgeführt, wobei man eine Hefestickstoffkultur mit Dextrose und Asparagin als Wachstumsmedium verwendete. Die Testmaterialien wurden gelöst, serienmässig verdünnt und dann in die geeigneten Löcher der Mikrotiterplatten überführt, so dass die Endkonzentrationen von 0,02 bis 1 mMol für die Nikkomycine, und 0,06 bis 64 µg für die Azole betrugen. Alle Löcher wurden mit 10.000 Organismen/ml (Endkonzentration) geimpft,und die Platten bei Raumtemperatur 48 Stunden lang inkubiert. Die Platten wurden dann ausgewertet,und die Wachstumsrate für jedes Loch festgestellt. Die Endpunkte wurden für jede Reihe als niedrigste Konzentration, die eine vollständige Inhibierung des Wachstums zeigte, bestimmt. Die Daten wurden als Isobologramme geplottet, die die Endpunkte für die einzelnen Verbindungen als auch die Endpunkte für die verschiedenen Kombinationen zeigten. […]

C. albicans = test: septic murine candidosis model, oral therapy; type: in vivo, CFW₁-Mäuse; conditions: for Zahl der überlebenden Tiere in den folgenden Tagen nach der Infektion: 2 x 100 mg/kg oral on the day of infection, 10 animals at day 0
Method: Wirksamkeit von Nikkomycin X und Z in dem Tiermodell von Murine candidosis.
Gezüchtete CFW₁-Mäuse wurden intravenös mit 6 x 10⁵ cfu von C. albicans infiziert. Die orale Therapie wurde gleichzeitig mit der Infektion gestartet. Die Mittel wurden einzeln mit Nährnadeln in Volumina von 0,5 ml ausgegeben.
In dem Modell der septischen Murine candidosis, das häufig zum Testen von Azolen verwendet wird, wird die Behandlung der Tiere gleichzeitig mit der Infektion gestartet, indem man 2 x 100 mg/kg beider Zubereitungen am Tag der Infektion verabreichte. Diese Verabreichungsweise erzeugt nur eine leichte Verzögerung in der lethalen Kinetik (Tabelle 1).

SMILES | Reduktion des Endpunktes für die Kombination hinsichtlich des Azolendpunktes [1] | Zahl der überlebenden Tiere in den folgenden Tagen nach der Infektion (C. albicans; day 3 after infection) | Zahl der überlebenden Tiere in den folgenden Tagen nach der Infektion (C. albicans; day 6 after infection) | Wirksamkeit (C. albicans; 14-day treatment, daily dose 2 x 10 mg/kg, Fig. 2) | Wirksamkeit (C. albicans; treatment period 3 days, 100 mg/kg, Fig. 1)
Clc1ccccc1C(c1ccccc1)(c1ccccc1)n1ccnc1 [Clotrimazol] | ≥ 50 -fach |  |  |  | 
C[C@@H]([C@H](N)C(=O)N[C@H](C(=O)O)[C@H]1O[C@@H](n2cc(C=O)[nH]c2=O)[C@H](O)[C@@H]1O)[C@H](O)c1ccc(O)cn1 [Nikkomycin X] |  | 10 | 3 |  | 
C[C@@H]([C@H](N)C(=O)N[C@H](C(=O)O)[C@H]1O[C@@H](n2ccc(=O)[nH]c2=O)[C@H](O)[C@@H]1O)[C@H](O)c1ccc(O)cn1 [Nikkomycin Z] |  | 6 | 5 | wirksamer als 2 x 100 mg/kg | vergleichbar zu der von 25 mg/kg Ketoconazol oder Vibunazol
